Assay results published in patent US8957017B2, “Dipeptoid prodrugs and their use” (Bayer Intellectual Property GmbH, priority 2007, dated 2015).
Structures can show the parent of a compound that is named as a salt.

Assays:
[1] = Oral pharmacokinetics in Wistar rats; type: in vivo; settings: after oral administration by gavage, male Wistar rats
Procedure: e) Oral Pharmacokinetics in Wistar Rats:
(§1) On the day before administration of the substance, a catheter for obtaining blood is implanted in the jugular vein of the experimental animals (male Wistar rats, body weight 200-250 g) under Isofluran® anesthesia.
(§2) On the day of the experiment, a defined dose of the test substance is administered as solution into the stomach by gavage. Blood samples (8-12 time points) are taken through the catheter sequentially over the course of 24 h after administration of the substance. Plasma is obtained by centrifuging the samples in heparinized tubes. Acetonitrile is added to a defined plasma volume per time point to precipitate proteins. After centrifugation, test substance and, where appropriate, known cleavage products of the test substance in the supernatant are determined quantitatively using a suitable LC/MS-MS method.
The measured plasma concentrations are used to calculate pharmacokinetic parameters of the test substance and of the active ingredient compound (A) liberated therefrom, such as AUC, Cmax, T1/2 (half-life).

[2] = test system: heart rate of anesthetized rats; assay: Influence on the heart rate of anesthetized rats; type: in vivo; settings: maximum decrease in the first 30 min after i.v. bolus of 100 μg/kg of (A) or equivalent dosages; anesthetized male Wistar rats
Procedure: f) Determination of the Influence on the Heart Rate of Anesthetized Rats:
Male Wistar rats with a body weight above 250 g are employed. In the night before the experiment, the animals receive no feed but still have free access to drinking water. Preparation and investigations are carried out under Trapanal® anesthesia (100 mg/kg i.p.). Injection and infusion take place through a catheter in the jugular vein, and the blood pressure is recorded via a catheter in the femoral artery (transducer: Braun, Melsungen). After the preparation, the animals are connected to a continuous infusion of physiological saline solution to compensate fluid losses. Test substance or placebo solution are administered as bolus after an equilibration time of about 1 h. Heart rate and arterial blood pressure are recorded during the equilibration and over a period of at least 30 min after the bolus injection with the aid of a digital evaluation program.
Table 4 lists the maximum heart rate decrease in the first 30 min after an i.v. bolus of 100 μg/kg of the active substance (A) or of equivalent dosages of representative exemplary embodiments: […]

[3] = Stability in buffer at various pH values; type: physicochemical
Procedure: b) Stability in Buffer at Various pH Values:
0.3 mg of the test substance is weighed into a 2 ml HPLC vial and 0.5 ml of acetonitrile or acetonitrile/DMSO (9:1) is added. The substance is dissolved by putting the sample vessel in an ultrasonic bath for about 10 seconds. Then 0.5 ml of the respective buffer solution is added, and the sample is again treated in the ultrasonic bath.
pH 2: 0.03 mol of citric acid, 0.061 mol of sodium chloride and 0.0082 mol of hydrochoric acid ad 1 liter of water;
pH 4: 1 liter of Millipore water is adjusted to pH 4.0 with 1 N hydrochloric acid;
pH 5: 0.096 mol of citric acid and 0.2 mol of sodium hydroxide ad 1 liter of water;
pH 6: 0.06 mol of citric acid and 0.16 mol of sodium hydroxide ad 1 liter of water;
pH 7.4: 90.0 g of sodium chloride, 13.61 g of potassium dihydrogen phosphate and 83.35 g of 1 N sodium hydroxide solution are made up to 1 liter with water; this solution is then further diluted 1:10 with Millipore water.
pH 8: 0.013 mol of borax and 0.021 mol of hydrochloric acid ad 1 liter of water.
5 μl portions of the test solution are analyzed by HPLC for their content of unchanged test substance, and of parent substance (A) produced, every hour over a period of 24 hours at 37° C. The percentage areas of the appropriate peaks are used for quantification.
The ratios of the peak areas (F) at the respective time points in relation to the peak areas at the starting time are shown in Table 2 for representative exemplary embodiments: […]

[4] = i.v. pharmacokinetics in Wistar rats; type: in vivo; settings: after i.v. bolus administration, male Wistar rats
Procedure: d) i.v. Pharmacokinetics in Wistar Rats:
as §1
as §2, with “tail vein using a Hamilton® glass syringe (bolus administration, duration of administration <10 s).” for “stomach by gavage.”
The measured plasma concentrations are used to calculate pharmacokinetic parameters of the test substance and of the active ingredient compound (A) liberated therefrom, such as AUC, Cmax, T1/2 (half-life) and CL (clearance).

[5] = Determination of the solubility in 5% strength aqueous dextrose solution; type: physicochemical; settings: saline or isotonic, thermodynamic from solid, room temperature, 24 h
Procedure: a) Determination of the Solubility:
The test substance is suspended in 5% strength aqueous dextrose solution. This suspension is shaken at room temperature for 24 h. After ultracentrifugation at 224 000 g for 30 min, the supernatant is diluted with DMSO and analysed by HPLC. A two-point calibration plot of the test compound in DMSO is used for quantification.
Agilent 1100 with DAD (G1315A), quat. Pump (G1311A), autosampler CTC HTS PAL, degasser (G1322A) and column thermostat (G1316A); column: Phenomenex Gemini C18, 5 μm, 50 mm×2 mm; temperature: 40° C.; eluent A: water/phosphoric acid pH 2, eluent B: acetonitrile; flow rate: 0.7 ml/min; gradient: 0-0.5 min 85% A, 15% B; ramp 0.5-3 min 10% A, 90% B; 3-3.5 min 10% A, 90% B; ramp 3.5-4 min 85% A, 15% B; 4-5 min 85% A, 15% B.
Agilent 1100 with DAD (G1315A), quat. pump (G1311A), autosampler CTC HTS PAL, degasser (G1322A) and column thermostat (G1316A); column: VDSoptilab Kromasil 100 C18, 3.5 μm, 60 mm×2.1 mm; temperature: 30° C.; eluent A: water+5 ml of perchloric acid/liter, eluent B: acetonitrile; flow rate: 0.75 ml/min; gradient: 0-0.5 min 98% A, 2% B; ramp 0.5-4.5 min 10% A, 90% B; 4.5-6 min 10% A, 90% B; ramp 6.5-6.7 min 98% A, 2% B; 6.7-7.5 min 98% A, 2% B.

Row | Compound | detectability of test substance in plasma [1] | Heart rate decrease [2] | % test substance after 4 h [F(t = 4 h) × 100/F(t = 0 h)] ([3]; pH 2, 37° C.) | % test substance after 24 h [F(t = 24 h) × 100/F(t = 0 h)] ([3]; pH 2, 37° C.) | % test substance after 4 h [F(t = 4 h) × 100/F(t = 0 h)] ([3]; pH 4, 37° C.) | % test substance after 24 h [F(t = 24 h) × 100/F(t = 0 h)] ([3]; pH 4, 37° C.) | % test substance after 4 h [F(t = 4 h) × 100/F(t = 0 h)] ([3]; pH 5, 37° C.) | % test substance after 24 h [F(t = 24 h) × 100/F(t = 0 h)] ([3]; pH 5, 37° C.) | % test substance after 4 h [F(t = 4 h) × 100/F(t = 0 h)] ([3]; pH 6, 37° C.) | % test substance after 24 h [F(t = 24 h) × 100/F(t = 0 h)] ([3]; pH 6, 37° C.) | % test substance after 4 h [F(t = 4 h) × 100/F(t = 0 h)] ([3]; pH 7.4, 37° C.) | % test substance after 24 h [F(t = 24 h) × 100/F(t = 0 h)] ([3]; pH 7.4, 37° C.) | detectability of test substance in plasma [4] | solubility thermodynamic at 24 h [5]
1 | N#Cc1c(N)nc(SCc2csc(-c3ccc(Cl)cc3)n2)c(C#N)c1-c1ccc(OCCOC(=O)CC[C@H](N)C(=O)NCCN)cc1 [Example 6, 2-{4-[2-Amino-6-({[2-(4-chlorophenyl)-1,3-thiazol-4-yl]methyl}thio)-3,5-dicyanopyridin-4-yl]-phenoxy}ethyl N-(2-aminoethyl)-L-α-glutaminate dihydrochloride] | no longer detectable in plasma even at the first measurement point | 17% | 100% | 100% | 100% | 100% | 96% | 80% | 78% | 25% | 8% | 0% | no longer detectable in plasma even at the first measurement point | > 500 µg/mL
2 | C[C@H](NC(=O)[C@@H](N)CCCCN)C(=O)OCCOc1ccc(-c2c(C#N)c(N)nc(SCc3csc(-c4ccc(Cl)cc4)n3)c2C#N)cc1 [Example 4, 2-{4-[2-Amino-6-({[2-(4-chlorophenyl)-1,3-thiazol-4-yl]methyl}thio)-3,5-dicyanopyridin-4-yl]-phenoxy}ethyl L-lysyl-L-alaninate dihydrochloride] | no longer detectable in plasma even at the first measurement point | 19% |  |  | 100% | 100% | 100% | 98% | 97% | 84% | 48% | 2% | no longer detectable in plasma even at the first measurement point | > 500 µg/mL
